According to PMC8397425, “A Strategy to Conjugate Bioactive Fragments to Cytotoxic Diiron Bis(cyclopentadienyl) Complexes” (Organometallics, 2021):
“And” between values parts separate entries of the source, which are not always exact repeats. Equal entries are not always repeated. Where two headings read alike, the source gives them in different places.

Tests used:
[1] = system: cancer cell lines; conditions: cited from earlier work
[2] = system: Human Ovarian Carcinoma (A2780) cell line; conditions: 72 h exposure, cited from earlier work
[3] = system: Human Embryonic Kidney 293T (HEK 293T) cell line; test: MTT cytotoxicity, HEK 293T; assay type: cell-based; conditions: 72 h exposure, mean ± SD
From the text: (§1) Human ovarian carcinoma (A2780 and A2780cisR) cell lines were obtained from the European Collection of Cell Cultures. The Human Embryonic Kidney 293T (HEK 293T) cell line was obtained from the ATCC (Sigma, Buchs, Switzerland). Penicillin–streptomycin, RPMI 1640 GlutaMAX (where RPMI = Roswell Park Memorial Institute), and DMEM GlutaMAX media (where DMEM = Dulbecco’s modified Eagle medium) were obtained from Life Technologies, and fetal bovine serum (FBS) was obtained from Sigma. The cells were cultured in RPMI 1640 GlutaMAX (A2780 and A2780cisR) and DMEM GlutaMAX (HEK 293T) media containing 10% heat-inactivated FBS and 1% penicillin–streptomycin at 37 °C and CO2 (5%). The A2780cisR cell line was routinely treated with cisplatin (2 μM) in the media to maintain cisplatin resistance. The cytotoxicity was determined using the 3-(4,5-dimethyl-2-thiazolyl)-2,5-diphenyl-2H-tetrazolium bromide (MTT) assay.[42] Cells were seeded in flat-bottomed 96-well plates as a suspension in a prepared medium (100 μL aliquots and approximately 4300 cells/well) and preincubated for 24 h. Stock solutions of compounds were prepared in DMSO and were diluted in the medium. The solutions were sequentially diluted to give a final DMSO concentration of 0.5% and a final compound concentration range of 0–200 μM. Cisplatin was tested as a positive (0–100 μM) control. The compounds were placed in the preincubated 96-well plates in 100 μL aliquots, and the plates were incubated for a further 72 h. MTT (20 μL, 5 mg/mL in Dulbecco’s phosphate buffered saline) was placed in the cells, and the plates were incubated for a further 4 h. The culture medium was aspirated, and the purple formazan crystals, formed by the mitochondrial dehydrogenase activity of vital cells, were dissolved in DMSO (100 μL/well). The absorbance of the resulting solutions, directly proportional to the number of surviving cells, was quantified at 590 nm using a SpectroMax M5e multimode microplate reader (using SoftMax Pro software, version 6.2.2). The percentage of surviving cells was calculated from the absorbance of wells corresponding to the untreated control cells. The reported IC50 values are based on the means from two independent experiments, each comprising four tests per concentration level.

[4] = system: Human Ovarian Carcinoma (A2780) cell line; test: MTT cytotoxicity, A2780; assay type: cell-based; conditions: 72 h exposure, MTT, mean ± SD
From the text: as §1

[5] = biological target: T1, COX-2 enzyme (Homo sapiens, UniProt P35354); test: COX-2 enzyme inhibition assay (fluorimetric); assay type: biochemical; conditions: residual enzyme activity, 25 °C, pH 8, mean ± SD
T1 construct: purchased Cayman Chemical Company
T1 sequence (P35354 18-604): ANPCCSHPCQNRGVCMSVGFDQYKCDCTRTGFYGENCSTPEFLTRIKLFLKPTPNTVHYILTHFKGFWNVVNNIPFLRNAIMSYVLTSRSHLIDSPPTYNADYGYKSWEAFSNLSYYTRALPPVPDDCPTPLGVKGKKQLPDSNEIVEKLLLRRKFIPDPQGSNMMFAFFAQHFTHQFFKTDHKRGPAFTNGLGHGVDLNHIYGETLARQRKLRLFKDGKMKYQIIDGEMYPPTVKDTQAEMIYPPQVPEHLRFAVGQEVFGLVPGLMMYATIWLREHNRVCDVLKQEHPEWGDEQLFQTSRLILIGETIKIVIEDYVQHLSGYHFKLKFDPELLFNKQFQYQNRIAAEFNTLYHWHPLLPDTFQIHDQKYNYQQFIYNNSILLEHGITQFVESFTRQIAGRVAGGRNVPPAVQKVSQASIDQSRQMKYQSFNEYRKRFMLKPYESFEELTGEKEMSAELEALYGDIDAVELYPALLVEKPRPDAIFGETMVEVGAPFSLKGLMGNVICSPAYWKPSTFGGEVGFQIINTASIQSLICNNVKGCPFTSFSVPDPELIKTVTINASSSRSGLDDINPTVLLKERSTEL
Procedure: Next, the possible role of the bioactive fragment in the complexes was studied.
The IC50 value was obtained using GraphPad Prism 7 software. All of the inhibitor assays were performed at least in triplicate.

[6] = system: Human Ovarian Carcinoma Cisplatin Resistant (A2780cisR) cell line; test: MTT cytotoxicity, A2780cisR; assay type: cell-based; conditions: 72 h exposure, mean ± SD
From the text: as §1

[7] = Solubility in D2O by 1H NMR; assay type: physicochemical; conditions: Me2SO2 internal standard, T = 21 °C
Procedure: (§2) The solubility of the complexes in D2O was assessed using ^1H NMR spectroscopy (see Table 1 and the Experimental Section for details). […] Data from the literature for the related nonfunctionalized complexes [2′,3′]CF3SO3 are compiled in Table 1 for comparison.[11] The octanol–water partition coefficients (Log Pow) were measured using a UV–vis method and fall within the −0.2 to +1.2 range (Table 1). […] For instance, Log Pow values of 1.07 and 0.65 are obtained for the geometric isomers [9]CF3SO3 and [10]CF3SO3, respectively.

[8] = Stability in D2O/DMSO at 37 °C by 1H NMR; assay type: physicochemical; conditions: for stability (%), residual percent of complex / stability (%), residual percentage of the complex: D2O/DMSO 2/1 v/v; for stability (%), total percentage of diiron complexes with a chlorambucil-like group: D2O/DMSO 1/1 v/v
Procedure: Conversely, [3–7]CF3SO3, containing either {Aryl–OCOAsp} or {Aryl-NHCOAsp} moieties, were stable under the same conditions. […] Complete conversion into the bis-hydroxide [8^2OH]^+ was achieved within 72 h. Similarly, [9,10]CF3SO3 undergo activation of the {C–Cl} bonds to give mixtures of the partially Cl/OH substituted species [9^OH]^+ and [10^OH]^+ and the fully substituted species [9^2OH]^+ and [10^2OH]^+.

[9] = Octanol–water partition coefficient (shake-flask, UV–vis); assay type: physicochemical; conditions: T = 21 °C
Procedure: as §2, with “respectively. […]” for “respectively.”
Determination of partition coefficients (Log P ow)
Partition coefficients ( Pow; IUPAC: K D partition constant, 7,8 defined as Pow = corg/caq, where corg and caq are the molar concentrations of the selected compound in the organic and aqueous phases, respectively, were determined by the shake-flask method and UV-Vis measurements. 9 Values of Log Pow for diiron complexes are compiled in Table 2. All the operations were carried out at 21±1 °C. De -ionised water and 1-octanol were mixed and vigorously stirred for 24 hours at room temperature to allow saturation of both phases, then separated by centrifugation and used for the following experiments. A solution of the selected Fe compound in the organic phase (V = 5 mL) was prepared and its UV-Vis spectrum was recorded. An aliquot of the solution (Vorg = 1.5 mL) was then transferred into a test tube and the aqueous phase (Vorg = Vaq = 1.5 mL) was added. The mixture was vigorously stirred for 20 minutes and the resulting emulsion was centrifuged (5000 rpm, 10’). […]
(§3) the organic phase was recorded. The procedure was repeated three times for each compound. The partition coefficient was then calculated as PPow = AorgA0,org − Aorg, where A0,org and Aorg are the absorbance values in the organic phase, respectively before and after mixing with the aqueous phase. 9 UV-Vis measurements were carried out using 1 cm PMMA cuvettes. The wavelength of the maximum absorption of each compound was used for UV-Vis quantification.

[10] = Stability in cell culture medium at 37 °C by NMR; assay type: physicochemical; conditions: after 72 h
Procedure: Complexes [3]CF3SO3, [5]CF3SO3, and [8]CF3SO3 were selected for an evaluation of their stability in the culture medium. Compounds were dissolved in DMSO-d6, and these solutions were diluted with the cell culture medium and stored at 37 °C. According to NMR spectroscopy, progressive release of the bioactive fragment occurred over 72 h, affording [3′]^+ from [3]CF3SO3 and [5′]^+ from [5]CF3SO3 (Figures S41 and S42). […] Overall, these findings indicate that the diiron scaffold decorated with biofunctionalized vinyliminium ligands is robust in aqueous media, with a tendency to progressively release the bioactive moiety in the medium used in cytotoxicity studies.
[8]CF3SO3, after 24 h: [3']+ and chlorambucil species ([8OH]+ + [8 2OH]+) (ratio 5:2). From [8]CF3SO3, after 72 h:
[3']+ and chlorambucil species ([82OH]+) (ratio 7:2).
Determination of partition coefficients (Log P ow) […]
as §3, with “The procedure was repeated three times for each compound.” left out, “9 UV-Vis measurements were carried out using 1 cm PMMA cuvettes.” left out

[11] = system: Human Ovarian Carcinoma Cisplatin Resistant (A2780cisR) cell line; conditions: 72 h exposure, cited from earlier work
[12] = system: Human Embryonic Kidney 293T (HEK 293T) cell line; conditions: 72 h exposure; cited from earlier work
[13] = deuterated aqueous medium, 37 °C

C#CCOC(=O)c1ccccc1OC(C)=O [ALK^A1]
activity toward cancer cell lines [1]: absence of activity

[Fe2Cp2(CO)2(μ-CO){μ-CNMe(R)}]CF3SO3 (R = Xyl = 2,6-C6H3Me2) [[1b]CF3SO3]
IC50 [2]: 9.3 ± 0.7 µM

[Fe2Cp2(CO)(μ-CO){μ-η^1:η^3-Cγ(3-C6H4NHC(=O)C6H4OC(=O)Me)CβHCαNMe(Xyl)}]CF3SO3 [[6]CF3SO3]
IC50 [3]: 7.2 ± 0.9 µM | IC50 [4]: 6.5 ± 0.8 µM | IC50 [5]: 66 ± 2 µM | IC50 [6]: 7 ± 2 µM | solubility [7]: <1 × 10^–4 mol L^–1 | stability (%), residual percent of complex ([8]; 24 h at 37 °C): 91% | Log Pow [9]: 0.80 ± 0.02

[Fe2Cp2(CO)(μ-CO){μ-η^1:η^3-Cγ(3-C6H4OC(=O)C6H4OC(=O)Me)CβHCαNMe2}]CF3SO3 [[3]CF3SO3]
IC50 [3]: 42 ± 6 µM | IC50 [4]: 24 ± 5 µM | IC50 [5]: 71 ± 1 µM | IC50 [6]: 21 ± 5 µM | stability (%), residual percent of complex ([8]; 24 h at 37 °C): 81% | stability (%), residual percentage of the complex ([8]; 72 h at 37 °C): 57% | Log Pow [9]: 0.24 ± 0.01

[Fe2Cp2(CO)(μ-CO){μ-η^1:η^3-Cγ(3-C6H4NHC(=O)C6H4OC(=O)Me)CβHCαNMe2}]CF3SO3 [[5]CF3SO3]
IC50 [3]: 89.9 ± 0.3 µM | IC50 [4]: 43 ± 6 µM | IC50 [5]: 10 ± 2 µM | IC50 [6]: 45 ± 1 µM | stability (%), residual percent of complex ([8]; 24 h at 37 °C): 69% | dissociation of the bioactive fragment [10]: complete dissociation | Log Pow [9]: –0.10 ± 0.01

[Fe2Cp2(CO)(μ-CO){μ-η^1:η^3-Cγ(CH2OC(=O)C6H4OC(=O)Me)CβHCαNMe(Xyl)}]CF3SO3 [[2]CF3SO3]
IC50 [3]: 9.2 ± 0.5 µM | IC50 [4]: 13 ± 2 µM | IC50 [5]: 84 ± 2 µM | IC50 [6]: 14 ± 1 µM | solubility [7]: <1 × 10^–4 mol L^–1 | stability (%), residual percent of complex ([8]; 24 h at 37 °C): 85% | stability (%), residual percentage of the complex ([8]; 72 h at 37 °C): 69% | release of aspirin from the linkage ([8]; deuterated aqueous medium, 37 °C, 24 h): approximately 20% | Log Pow [9]: 0.40 ± 0.01

CC(=O)Oc1ccccc1C(=O)O [aspirin, acetylsalicylic acid]
IC50 [11]: > 200 µM | IC50 [12]: > 200 µM | IC50 [2]: > 200 µM

N.N.[Cl][Pt][Cl] [cisplatin, reference compound]
IC50 [3]: 2.6 ± 0.4 µM | IC50 [4]: 0.6 ± 0.1 µM | IC50 [6]: 7.9 ± 0.1 µM

[Fe2Cp2(CO)2(μ-CO){μ-CNMe(R)}]CF3SO3 (R = Me) [[1a]CF3SO3]
IC50 [2]: > 200 µM | IC50 A2780 [2]: not active

O=C(O)CCCc1ccc(N(CCCl)CCCl)cc1 [chlorambucil]
IC50 ([11]; ref 22b): 25 ± 4 µM | IC50 ([2]; ref 22b): 5.2 ± 1.6 µM

[Fe2Cp2(CO)(μ-CO){μ-η^1:η^3-Cγ(3-C6H4OC(=O)(CH2)3C6H4N(CH2CH2Cl)2)CβHCαNMe2}]CF3SO3 [[8]CF3SO3]
IC50 [3]: 20 ± 9 µM | IC50 [4]: 4.7 ± 0.4 µM | IC50 [6]: 23 ± 3 µM | solubility [7]: <1 × 10^–4 mol L^–1 | stability (%), total percentage of diiron complexes with a chlorambucil-like group ([8]; 24 h at 37 °C): 84% | stability (%), total percentage of diiron complexes with a chlorambucil-like group ([8]; 72 h at 37 °C): 77% | stability of the linkage to the bioactive fragment (hydrolysis) [8, 13]: did not undergo hydrolysis | time to complete conversion into the bis-hydroxide (Cl/OH exchange) [8, 13]: ≤ 72 h | Log Pow [9]: 1.2 ± 0.2

[Fe2Cp2(CO)(μ-CO){μ-η^1:η^3-Cγ(4-C6H4NHC(=O)C6H4OC(=O)Me)CβHCαNMe2}]CF3SO3 [[7]CF3SO3]
IC50 [3]: > 100 µM | IC50 [4]: 71 ± 14 µM | IC50 [5]: 20 ± 2 µM | IC50 [6]: 87 ± 10 µM | stability (%), residual percent of complex ([8]; 24 h at 37 °C): 70% | Log Pow [9]: –0.19 ± 0.01

[Fe2Cp2(CO)(μ-CO){μ-η^1:η^3-Cγ(4-C6H4NHC(=O)(CH2)3C6H4N(CH2CH2Cl)2)CβHCαNMe2}]CF3SO3 [[10]CF3SO3]
IC50 [3]: 30 ± 1 µM | IC50 [4]: 6.4 ± 1.4 µM | IC50 [6]: 15 ± 5 µM | solubility [7]: <1 × 10^–4 mol L^–1 | stability (%), total percentage of diiron complexes with a chlorambucil-like group ([8]; 24 h at 37 °C): 93% | stability (%), total percentage of diiron complexes with a chlorambucil-like group ([8]; 72 h at 37 °C): 85% | Log Pow [9]: 0.65 and 0.65 ± 0.02
